Calls of active or inactive are those of the source. The calls are words filed in the database; no cut-off is given here.
Assays:
Bacillus subtilis [1] = assay: Antibacterial activity against Bacillus subtilis after 48 hrs; type: functional
Bacillus subtilis [2] = assay: Bacteriostatic activity against Bacillus subtilis up to 500 ug/ml after 48 hrs; type: functional, organism-based
Bacillus subtilis [3] = assay: Bactericidal activity against Bacillus subtilis up to 500 ug/ml after 48 hrs; type: functional, organism-based
Escherichia coli [4] = assay: Bacteriostatic activity against Escherichia coli up to 500 ug/ml after 48 hrs; type: functional, organism-based
Escherichia coli [5] = assay: Bactericidal activity against Escherichia coli up to 500 ug/ml after 48 hrs; type: functional, organism-based

SMILES	MIC (Bacillus subtilis [1]) [µg/mL]	Activity (Bacillus subtilis [2])	Activity (Bacillus subtilis [3])	Activity (Escherichia coli [4])	Activity (Escherichia coli [5])
CC1(C)S[C@@H]2[C@H](NC(=O)[C@H](N)c3ccccc3)C(=O)N2[C@H]1C(=O)O [AMPICILLIN]	< 10	–	–	–	–
CCCCCCCCOC(=O)c1ccncc1	–	inactive	inactive	inactive	inactive
CCCCC[C@@H](C)COC(=O)c1ccncc1	–	inactive	inactive	inactive	inactive

Reference: ChEMBL document CHEMBL3632574, “Synthesis and evaluation of antibacterial activity of (R)-2-methylheptyl isonicotinate, a putative naturally occurring bioactive agent” (2015)
